Measured values as given in US12104176B2, “Efficient cell culture system for hepatitis C virus genotype 6A” (priority 2018, dated 2024).
pEC50: −log10 of the molar value. Like-named read-outs stand apart in the source and are kept apart here. Marks after values point to notes of the source that are not given here.

Legend:
HK6a (6a) = assay: Concentration-response treatment of infected Huh7.5 cells, HK6a full-length virus; conditions: for EC50: Hepatitis C virus, Huh7.5, read-out: EC50, nM (95% CI), HK6a (6a); for Fold to TN, HK6a (6a): fold change in EC50 compared to TN
Protocol: (§1) Huh7.5 cells were seeded in 96-well plates and then infected with the indicated viruses. TN (1a) was used as a comparative control. 24 h after infection, cells were treated with the indicated NS5A inhibitor for 48 h. Values are means of triplicates±SEM. Concentration-response curves were calculated as previously described^26.
(§2) All concentration-response treatment experiments were performed using established methods^16,18,26. For half-maximal effective concentration (EC50) value calculations, a sigmoidal concentration-response curve was fitted using GraphPad Prism 6^18,26.

TN (1a) = assay: Concentration-response treatment of infected Huh7.5 cells, TN (1a) control virus; conditions: Hepatitis C virus, Huh7.5, read-out: EC50, nM (95% CI), TN (1a)
Protocol: as §1, §2

HK2 (6a) = conditions: for EC50: Hepatitis C virus, Huh7.5, read-out: EC50, nM (95% CI), HK2 (6a); for Fold to TN, HK2 (6a): fold change in EC50 compared to TN
Protocol: as §1, §2

HK2-VELesc, L31V (NS5A) = assay type: cell-based, HCV genotype 6a; conditions: HK2-VELesc vs original HK2
HK6a-VELesc, L31V (NS5A) = assay type: cell-based, HCV genotype 6a; conditions: HK6a-VELesc vs original HK6a
[1] = system: HK6a velpatasvir escape virus harboring NS5A-L31V; assay type: cell-based; conditions: pibrentasvir 0.3, 3 and 10 nM
[2] = system: HK6a-VELesc/PIB(3 nM)esc, V21A + L28S + L31V (NS5A); assay type: cell-based, HCV genotype 6a; conditions: HK6a-VELesc/PIB(3 nM)esc vs original HK6a
[3] = system: HK6a-SOFesc, S282T (NS5B); assay type: cell-based, HCV genotype 6a; conditions: HK6a-SOFesc vs original HK6a
[4] = system: HK6a full-length virus (original); conditions: for day from which no HCV-antigen positive cells were detectable: HK6a original virus; for outcome of long-term treatment (resistance selection) / outcome of long-term treatment: HK6a; for outcome of long-term treatment: velpatasvir (10 nM) and sofosbuvir (570 nM), individually or combined
Protocol: Long-term treatment was performed for HK6a viruses as described in Materials and Methods. (A): Percentage HCV-antigen positive cells determined by evaluation of Core/NS5A-antigen positive versus total number of cells during treatment (y-axis) at the indicated time points (x-axis) (top panel). […] Changes in HCV RNA levels (y-axis) related to day 0 (treatment initiated), were determined from supernatants at corresponding time-points (x-axis) (bottom panel)^18. (B-D): Combination treatment of sofosbuvir (570 nM) and different concentrations of velpatasvir [0.1(10x−EC50), 1(100x−EC50), 10(1000x−EC50) nM], were performed with HK6a escape viruses compared with original viruses.
For long-term DAA treatments, Huh7.5 cells were infected with second-passage supernatants of HK2(H77_3′XSLI)-17m or HK6a(FL)-12m viruses (Table 1, FIG. 1F). […] Treatments were carried out in T25 flasks, and drugs were diluted in medium at the indicated concentration. Drugs were added every 2-3 days when cells were split. HCV RNA levels were determined using supernatants collected at indicated time points as described^18. The percentage of HCV positive cells, at indicated time-points, was determined by immunostaining, and supernatants were collected and stored at −80° C. for further analysis. At day 25 after initiation of treatment, cultures with no detectable HCV positive cells were divided into 2 flasks, and one of the replicates was cultured without drug. These untreated cultures were followed for 2 weeks and if no HCV positive cells were detected by immunostaining, the infection was considered cleared.

[5] = system: HK6a-VELesc/PIB(10 nM)esc, L28S + L31V (NS5A); assay type: cell-based, HCV genotype 6a; conditions: HK6a-VELesc/PIB(10 nM)esc (L28S+L31V) vs original HK6a
[6] = system: HK6a-SOFesc/VELesc, S282T (NS5B)/L28S (NS5A); assay type: cell-based, HCV genotype 6a; conditions: HK6a-SOFesc/VELesc (L28S) vs original HK6a
HK2-SOFesc, S282T (NS5B) = assay type: cell-based, HCV genotype 6a; conditions: HK2-SOFesc vs original HK2
HK2cc = assay: microbe, parasite or virus in culture; assay type: cell-based; conditions: Hepatitis C virus; HK2cc in separate experiment of FIG. 4
[7] = system: HK2cc recombinant viruses with NS5B-S282T
[8] = system: escape viruses with RAS NS5B-S282T (HK2 and HK6a); assay type: cell-based, HCV genotype 6a; conditions: escape viruses generated in drug-free cultures, FIGS. 4A, B
[9] = system: velpatasvir escape viruses of HK2 and HK6a (NS5A-L31V); assay type: cell-based, HCV genotype 6a; conditions: drug-free passage stocks of HK2 and HK6a escape viruses, FIG. 3A
[10] = Huh7.5 cells, treated 24 h after infection for 48 h, ni = not inhibited at highest concentration used

SMILES	EC50 (HK6a (6a)) [nM]	Fold to TN, HK6a (6a) (HK6a (6a)) [fold]	EC50 (TN (1a)) [nM]	EC50 (HK2 (6a)) [nM]	Fold to TN, HK2 (6a) (HK2 (6a)) [fold]	other results
COc1ccc2c(c1)[C@@H]1C[C@]1(C(=O)N1[C@@H]3CC[C@H]1CN(C)C3)Cn1c-2c(C2CCCCC2)c2ccc(C(=O)NS(=O)(=O)N(C)C)cc21 [Beclabuvir]	34.1	6.4	5.3	28.1	5.3	
COC(=O)N[C@H](C(=O)N1CCC[C@H]1c1nc(-c2ccc(-c3ccc(-c4c[nH]c([C@@H]5CCCN5C(=O)[C@@H](NC(=O)OC)C(C)C)n4)cc3)cc2)c[nH]1)C(C)C [Daclatasvir]	0.014		0.019			
COc1c(-c2ccc3cc(NS(C)(=O)=O)ccc3c2)cc(-n2ccc(=O)[nH]c2=O)cc1C(C)(C)C [Dasabuvir]	434	12.2	35.5	267	7.5	
COC(=O)N[C@H](C(=O)N1CCC[C@H]1c1nc(-c2ccc3c(c2)O[C@@H](c2ccccc2)n2c-3cc3cc(-c4c[nH]c([C@@H]5CCCN5C(=O)[C@@H](NC(=O)OC)C(C)C)n4)ccc32)c[nH]1)C(C)C [Elbasvir]	0.009	1.5	0.006	0.017	2.8	
CNC(=O)c1c(-c2ccc(F)cc2)oc2cc(N(CCO)S(C)(=O)=O)c(C3CC3)cc12 [HCV-796]	131	5.0	26	24	0.9	
COC(=O)N[C@H](C(=O)N1CC2(CC2)C[C@H]1c1nc(-c2ccc3c(c2)C(F)(F)c2cc(-c4ccc5[nH]c([C@@H]6[C@H]7CC[C@H](C7)N6C(=O)[C@@H](NC(=O)OC)C(C)C)nc5c4)ccc2-3)c[nH]1)C(C)C [Ledipasvir]	0.346	69.2	0.005	0.228	45.6	
CC(C)(C)C#Cc1cc(N(C(=O)[C@H]2CC[C@H](C)CC2)[C@H]2CC[C@H](O)CC2)c(C(=O)O)s1 [Lomibuvir]	> 4000		27.6	> 4000		EC50, nM (95% CI), HK6a (6a) (HK6a (6a); [10]): ni; EC50, nM (95% CI), HK2 (6a) (HK2 (6a); [10]): ni
CC(C)OC(=O)[C@@H](C)N[P@@](=O)(OC[C@H]1O[C@@H](n2ccc(=O)[nH]c2=O)[C@](C)(Cl)[C@@H]1O)Oc1ccccc1 [MK-3682]	522	1.3	392	370	0.9	
COC(=O)N[C@H](C(=O)N1CCC[C@H]1C(=O)Nc1ccc([C@@H]2CC[C@@H](c3ccc(NC(=O)[C@@H]4CCCN4C(=O)[C@@H](NC(=O)OC)C(C)C)cc3)N2c2ccc(C(C)(C)C)cc2)cc1)C(C)C [Ombitasvir]	2.2	1100.0	0.002	0.6	300.0	
COC(=O)N[C@H](C(=O)N1CCC[C@H]1c1nc2cc([C@H]3CC[C@H](c4cc5nc([C@@H]6CCCN6C(=O)[C@@H](NC(=O)OC)[C@@H](C)OC)[nH]c5cc4F)N3c3cc(F)c(N4CCC(c5ccc(F)cc5)CC4)c(F)c3)c(F)cc2[nH]1)[C@@H](C)OC [Pibrentasvir]	0.004	1.0	0.004	0.002	0.6	Fold-change EC50 to original virus (HK2-VELesc, L31V (NS5A)): 1 fold; Fold-change EC50 to original virus (HK6a-VELesc, L31V (NS5A)): 1 fold; outcome of long-term treatment [1]: escaped the treatment at all concentrations; Fold-change EC50 to original virus [2]: 85.500 fold; Fold-change EC50 to original virus [3]: 1 fold; day from which no HCV-antigen positive cells were detectable ([4]; pibrentasvir 0.3 nM): 7 days; day from which no HCV-antigen positive cells were detectable ([4]; pibrentasvir 3 nM): 5 days; day from which no HCV-antigen positive cells were detectable ([4]; pibrentasvir 10 nM): 5 days; outcome of long-term treatment (resistance selection) ([4]; PIB 0.3 nM): Infection cleared; outcome of long-term treatment (resistance selection) ([4]; PIB 3 nM): Infection cleared; outcome of long-term treatment (resistance selection) ([4]; PIB 10 nM): Infection cleared; Fold-change EC50 to original virus [5]: 79.000 fold; Fold-change EC50 to original virus [6]: 250 fold
CC(C)OC(=O)[C@H](C)N[P@](=O)(OC[C@H]1O[C@@H](n2ccc(=O)[nH]c2=O)[C@](C)(F)[C@@H]1O)Oc1ccccc1 [Sofosbuvir]	513	1.1	481	393	0.8	Fold-change EC50 to original virus (HK2-SOFesc, S282T (NS5B)): 7.9 fold; pEC50 (HK2cc): 6.19; fold lower sensitivity compared with HK2cc [7]: 3 to 5 fold; fold increase in EC50 [8]: ≥ 8 fold; Fold-change EC50 to original virus [3]: ≥8^d fold; outcome of long-term treatment [4]: failed to fully suppress the infection
COC[C@H]1C[C@@H](c2nc(-c3ccc4c(c3)COc3cc5c(ccc6nc([C@@H]7CC[C@H](C)N7C(=O)[C@@H](NC(=O)OC)C(C)C)[nH]c65)cc3-4)c[nH]2)N(C(=O)[C@H](NC(=O)OC)c2ccccc2)C1 [Velpatasvir]	0.011	2.2	0.005	0.007	1.4	fold increase in EC50 in comparison with the pre-treatment virus [9]: 2- to 3 thousand; Fold-change EC50 to original virus (HK2-VELesc, L31V (NS5A)): 3066 fold; Fold-change EC50 to original virus (HK6a-VELesc, L31V (NS5A)): 2384 fold; Fold-change EC50 to original virus [2]: ≥992.928^d fold; Fold-change EC50 to original virus [3]: 1 fold; outcome of long-term treatment [4]: failed to fully suppress the infection; Fold-change EC50 to original virus [5]: > 899.000 fold; Fold-change EC50 to original virus ([5]; listed as VEL): ≥899.214^d fold; Fold-change EC50 to original virus [6]: ~58.000 fold; Fold-change EC50 to original virus ([6]; listed as VEL): 58.105 fold
